Results from patent US20260327628A1, “AN RNA APTAMER THAT BINDS TO ASP7967 OR AN ANALOGUE THEREOF” (priority 2022, published 2026).
pEC50, pKd: −log10 of the molar value.

Experiments:
AC17-4 RNA aptamer = experiment: Affinity measurement by SPR, AC17-4 immobilized chip; assay type: binding; conditions: for pKd: 25 °C; for affinity for AC17-4 (in words): ASP2905 versus ASP7967
Experimental: Affinity measurements of the aptamers with the ligands by SPR were performed as described by Chang et al.^53 with some modifications. Experiments were performed on Biacore T200 (Cytiva) at 25° C. For immobilization of the capture DNA (5′-/5AmMC6/[…]-3′ (SEQ ID NO: 32),/5AmMC6/: 5′ amino modifier C6, IDT), 1×HBS-N (10 mM HEPES, pH 7.4, 150 mM NaCl) was used as the running buffer. CM5 chip surface was washed by two injections of NaOH/NaCl solution (25 mM NaOH, 1 M NaCl) at 20 μl min^−1 for 30 s. Next, a solution containing 200 mM 1-ethyl-3-(3-dimethylaminopropyl) carbodiimide hydrochloride (EDC) and 50 mM N-hydroxysuccinimide (NHS) was injected into all flow cells at 10 μl min^−1 for 7 min to activate the surface carboxylic acid groups. Then, the capture DNA (20 μM) in 10 mM HEPES-KOH buffer (pH 7.5) supplemented with 0.6 mM cetyltrimethylammonium bromide was injected at 5 μl min^−1 for 10 min. The unreacted activated carboxylic acid groups were quenched by an injection of 1 M ethanolamine-HCl (pH 8.5) for 7 min at 10 μl min^−1. To remove the noncovalently adsorbed DNA on the chip surface, NaOH/NaCl solution was injected two times at 20 μl min^−1 for 30 s. The immobilized DNA levels were 2846±284 RU.
The dsDNA templates for in vitro transcription of the aptamers were prepared by primer extension of two oligo DNAs using Q5 High-Fidelity DNA Polymerase (NEB). AC17-4 RNA aptamer and its mutants containing 3′ poly(A) tail (Table 4) were synthesized by in vitro transcription using ScriptMAX Thermo T7 Transcription Kit (TOYOBO) according to the manufacturer's instructions. The reaction products were treated with 2 U TURBO DNase (Thermo Fisher Scientific) for 30 min at 37° C. and purified with RNA Clean & Concentrator-25 Kit (Zymo Research). RNA concentrations were determined by absorbance at 260 nm according to OligoCalc^54. RNA solutions (~3.6 μM) were prepared in water and denatured by heating at 80° C. for 3 min. After cooling at room temperature for few minutes, the RNA solutions were diluted with an equal volume of high salt buffer (10 mM Tris-HCl, pH 7.5, 1 M NaCl, 1 mM EDTA). Stock solutions of ASP2905 and ASP7967 in DMSO (20 mM, fumaric acid adduct, Astellas Pharma, Inc.) were prepared based on the weight. […] An aptamer ligand was injected at 30 μl min^−1 for 120 s to monitor association, and then the dissociation kinetics was monitored for 180 s in the SPR running buffer. […] The raw data were analysed by Biacore T200 Evaluation Software 1.0 using 1:1 Langmuir interaction model. […] Dissociation constant (KD) was determined from the ratio of the association and the dissociation rate constants (KD=koff/kon) or by equilibrium analysis. […]

[1] = system: a8-AC17-4-CPP riboswitch (EGFP expression in HEK293 cells); experiment: Riboswitch assay in HEK293 cells, a8-AC17-4-CPP, ligand response; assay type: cell-based; conditions: for fold induction at 5 µM: 48 h, 5 μM ligand, HEK293 cells, read-out: activation of EGFP / gene expression (ON/OFF)
Experimental: HEK293 cells were cultured in Dulbecco's modified Eagle's medium (DMEM) supplemented with 10% heat-inactivated FBS (Gibco) containing 2 mM L-glutamine and 100 units ml^−1 of penicillin-streptomycin (DMEM-FBS). Cells were kept in a 37° C. incubator with 5% CO2 and passaged regularly upon reaching 90% confluency. Approximately 20 h prior to transfection, the cells were trypsinized, diluted to ~2.7×10^5 cells ml^−1 and 100 μl per well were seeded onto a 96-well plate. Cells in each well were cotransfected with 100 ng of the EGFP-aptazyme plasmid and 20 ng of pCMV-mCherry^27 (transfection control) using 0.3 μl of TransIT-293 Transfection Reagent (Mirus) according to the manufacturer's instructions. Five hours after transfection, the medium in each well was replaced with fresh medium with (up to 5 μM) or without ASP2905 or ASP7967. The aptamer ligands were dissolved at 1000× concentration in DMSO. Forty-eight hours after transfection, the medium in each well was replaced with 100 μl of phosphate buffered saline (PBS), and fluorescence intensity was measured by Infinite M1000 PRO microplate reader (Tecan). Fluorescence intensity was measured at 484 nm excitation/510 nm emission/5 nm bandwidth for EGFP, and at 587 nm excitation/610 nm emission/10 nm bandwidth for mCherry. Background fluorescence measured using untransfected cells was subtracted from the EGFP and mCherry fluorescence values. Then, EGFP fluorescence was normalized by mCherry fluorescence to account for variations in transfection efficiency and cell counts. All reported values are averages of three replicate wells.
The anti-Rz sequence was varied from 6 to 10 nucleotides, and the aptazyme was inserted in the 3′ UTR of the EGFP transcript.
The EGFP-riboswitch plasmid and an mCherry-expressing plasmid (transfection control) were cotransfected into HEK293 cells in the absence or presence (5 μM) of ASP2905 or ASP7967. EGFP and mCherry fluorescence was measured two days after transfection, and EGFP fluorescence was normalized by mCherry fluorescence to account for variability in transfection efficiency. […] We attribute this to the coincidental complementarity of the nucleotides preceding anti-Rz (CA) to the ribozyme sequence, making the effective anti-Rz sequence length longer than intended.
The riboswitch a8-AC17-4-CPP was further analyzed for the dose dependent response to ASP7967 (FIG. 6d).

| SMILES | pKd (AC17-4 RNA aptamer) | affinity for AC17-4 (in words) (AC17-4 RNA aptamer) | fold induction at 5 µM ([1]; Homo sapiens) | ASP7967 concentration at which riboswitch response mostly saturated [1] | pEC50 ([1]; Homo sapiens, HEK293, dose dependent response) |
| --- | --- | --- | --- | --- | --- |
| Fc1ccc(Nc2nc(NCc3ncccn3)nc(Nc3ccccc3)n2)cc1 [ASP2905, reference compound] | 8.11 | comparable affinity | ~10 | – | – |
| Fc1ccc(Nc2nc(NCc3ncccn3)nc(Nc3ccc(F)cc3)n2)cc1 [ASP7967] | 7.92 | comparable affinity | ~10 | 5 µM | ~5.96 |
